From patent publication US10166253B2, “Positively charged co-polymers for use as antimicrobial agents” (priority 2014, dated 2019)

Key:
[1] = tested on: S. aureus (Wood 46); assay: Antimicrobial susceptibility testing (MIC) by the oCelloScope system; format: cell-based, Staphylococcus aureus; conditions: CAMHBT broth, SESA growth curves
Procedure: E. coli (strain NCTC 10418) and S. aureus (Wood 46, NCTC 7121) were grown overnight in Sensititre® cation-adjusted Mueller-Hinton broth with TES (CAMHBT, TREK Diagnostic System). Bacterial cell suspensions were adjusted to 0.5 McFarland standard using a nephelometer. Subsequently, bacteria were diluted in CAMHBT according to the recommended final inoculum size for broth dilution (5×10^5 colony-forming units (CFU) ml^−1) (Wiegand, I., K. Hilpert, and R. E. Hancock, Agar and broth dilution methods to determine the minimal inhibitory concentration (MIC) of antimicrobial substances. Nat Protoc, 2008. 3(2): p. 163-75) and analyzed in Nunc Edge 96-well plates by the oCelloScope system.
The oCelloScope is a digital time-lapse microscopy technology that scans through a fluid sample generating series of images as described in 2013 by Fredborg et al. (Fredborg, M., et al., Real-time optical antimicrobial susceptibility testing. J Clin Microbiol, 2013. 51(7): p. 2047-53). As a result of the tilted imaging plane, the images recorded by the oCelloScope system constitute a parallelepipedum that forms the image stack. […] Growth kinetics was determined by image stack processing based on contrast based Segmentation and Extraction of Surface Area (SESA). […]
The effect of GA on bacterial growth was further evaluated using, an optical screening system (oCelloScope) (FIG. 6). […]

[2] = tested on: multi-resistant P. aeruginosa strain (CCUG59626); assay: Flow cytometry viability assay on multiresistant strain; format: cell-based, Pseudomonas aeruginosa; conditions: CCUG59626, ~10^8 cells/ml
Procedure: A multi-resistant P. aeruginosa strain (CCUG59626) (˜10^8 cells/ml) was incubated with varying concentrations of GA and LL-37. […] All experiments were performed as four replicates.

[3] = tested on: P. aeruginosa (strain PAO1, ATCC 15692); assay: Colony-forming unit (CFU) counting; format: cell-based, Pseudomonas aeruginosa; conditions: 30 minutes at 37° C. in PBS, in comparison with LL-37
Procedure: Late-log phase E. coli (strain NCTC 10418), P. aeruginosa (strain PAO1, ATCC 15692) and S. aureus (Wood 46, NCTC 7121) were resuspended in PBS and treated with different concentrations of glatiramer acetate (GA) or LL-37 (Innovagen, Lund, Sweden) and incubated on a shaker for 30 minutes at 37° C. Subsequently, a dilution series was performed to achieve a suitable amount of bacteria on the 5% blood agar plates. The 5% blood agar streak plates were cultured at 37° C. for 16 h and the resulting CFUs on the blood agar plates were imaged with a digital camera and counted with the aid of the software ImageJ 1.48v.

[4] = tested on: P. aeruginosa (PAO1); assay: Binding of Alexa Fluor 488-labeled GA to bacteria (MFI by flow cytometry); parameters: species or system Pseudomonas aeruginosa; conditions: PBS + 50 mM NaCl, total salt 200 mM, GA 50 and 10 μg/ml
Procedure: GA was diluted in freshly made 0.1 M NaHCO3 and labeled with Alexa Fluor 488 according to manufacturer's instruction. Late-log phase E. coli (strain NCTC 10418), P. aeruginosa (strain PAO1, ATCC 15692) and S. aureus (Wood 46, NCTC 7121) were resuspended in PBS or PBS supplemented with 50 mM NaCl; treated with either 50 μg/ml or 10 μg/ml Alexa Fluor® 488-labeled GA and incubated on a shaker at 37° C. for 30 minutes. Hereafter, bacteria were diluted 1:100 in PBS and analyzed on a Novocyte™ flow cytometer.
This constitutes a problem when for example treating patients with cystic fibrosis. These patients have a high salt concentration in their lungs of about 150-200 mM, and it is therefore critical that drugs used for treating these patients are active at such high salt concentrations (Gilljam H et al., Scand J Clin Lab Invest. 1989 April; 49(2):121-4). Therefore, the binding capacity of GA to bacteria resuspended in PBS or in PBS supplemented with 50 mM NaCl. PBS+50 mM NaCl results in a total salt concentration of 200 mM. […]
Mean Fluorescence intensities (MFI) were assessed by flow cytometry to quantify the binding capacity of GA to the bacterial membrane. […]

## Glatiramer acetate [GA]
[1]
  MIC: 500 µg/mL
[2]
  susceptibility of multiresistant strain (in words): highly susceptible
[3]
  antibacterial effect by CFU counting (in words): higher antimicrobial activity
[4]
  binding capacity to bacteria (MFI, in words): retained its binding capacity
